Where “and” joins values, the source holds several entries; their conditions need not be identical. Equal entries are not always repeated.
Assays:
[1] = test system: 6-OHDA-treated Neuro-2a cells; assay: 6-OHDA-induced neurotoxicity model, cell viability test (MTT); format: cell-based, murine; details: 6-OHDA 100 µM
Method: Neuro-2a cells were incubated with the studied polyphenolic compounds for 1 h. Then, 100 µM of 6-hydroxydopamine 6-OHDA were added. We determined the percentage of living Neuro-2a cells after treatment with 6-OHDA (Figure 4a–d).
Figure 4 The effect of polyphenolic compounds isolated from M. amurensis heartwood on the viability of Neuro-2a cells treated with 6-OHDA (100 μM) (a–d). The viability of Neuro-2a cells treated with various compounds and 6-OHDA was measured by the MTT assay. Polyphenolic compounds isolated from M. amurensis heartwood were used at concentrations 10, 1, 0.1 μM. The data are presented as means ± SEM of three independent replicates. (*) indicate p < 0.05 versus 6-OHDA-treated cells.
After 24 h of adhesion, Neuro-2a cells (5 × 10^4 cells/mL) were treated with polyphenolic compounds at concentrations of 0.1, 1 and 10 μM for 1 h. Then, 100 µM of 6-OHDA or 1 mM of PQ (Sigma-Aldrich, St. Louis, MO, USA) were added. Cells incubated without inductors or with inductors were used as positive and negative control, respectively. Cell viability was measured after 24 h using the MTT assay.

[2] = test system: 6-OHDA-treated Neuro-2a cells; assay: Mitochondrial membrane potential detection (TMRM) in 6-OHDA-treated cells; format: cell-based, murine
Method: We determined the effect of polyphenolic compounds from M. amurensis on 6-OHDA-induced mitochondrial dysfunction in Neuro-2a cells (Figure 6a,b).
Figure 6 The effect of polyphenolic compounds isolated from M. amurensis heartwood on mitochondrial membrane potential in Neuro-2a cells treated with 6-OHDA (120 μM) (a,b). Polyphenolic compounds isolated from M. amurensis heartwood were used at concentrations 10, 1, 0.1 μM. The data are presented as means ± SEM of three independent replicates. (*) and (***) indicate, respectively, p < 0.05 and p < 0.001 versus 6-OHDA-treated cells.
The cells were incubated for 1 h in a 96-well plate (1 × 10^4 cells/well) with polyphenolic compounds (0.1, 1 and 10 µM). Then, 6-OHDA (120 µM) was added, and cell suspension was incubated for 1 h. Cells incubated without 6-OHDA and compounds and with 6-OHDA alone were used as positive and negative control, respectively. The tetramethylrhodamine methyl (TMRM) (Sigma-Aldrich, St. Louis, MO, USA) solution (500 nM) was added to each well and cells were incubated for 30 min at 37 °C. The intensity of fluorescence was measured using a PHERAstar FSplate reader (BMG Labtech, Ortenberg, Germany) at λex = 540 nm and λem = 590 nm. The data were processed by MARS Data Analysis v. 3.01R2 (BMG Labtech, Ortenberg, Germany).

[3] = test system: HSV-1; assay: Virucidal activity, CPE inhibition assay (HSV-1 pretreated with compounds); format: cell-based, HSV-1 strain L2; details: for virucidal activity against HSV-1 (in words): virus pretreated with compound
Method: The antiviral activity of polyphenols from M. amurensis against HSV-1 was assessed using the cytopathic effect inhibition (CPE) assay. To study the inhibitory effect of polyphenolic compounds directly on the HSV-1 virus (direct virucidal activity), the monolayer of Vero cells grown on 96-well plates (1 × 10^4 cells/well) was infected with the virus (100 TCD50/mL), pretreated with different concentrations of polyphenolic compounds.
(§1) The HSV-1 strain L2 obtained from N.F. Gamaleya Federal Research Centre for Epidemiology and Microbiology (Moscow, Russia) was grown in Vero cells as previously described.
(§2) We determined the direct inhibitory effect of polyphenolic compounds from M. amurensis heartwood on HSV-1 (virucidal effect). We mixed the virus at an infectious dose (100 TCID50/mL) with polyphenolic compounds (from 0.1 to 100 µg/mL) at a ratio of 1:1 (v/v) and incubated for an hour at 37 °C. Then, we infected the monolayer of Vero cells grown on 96-well plates (1 × 10^4 cells/well) with HSV-1 pretreated with the studied compounds. After 1 h adsorption at 37 °C, the cells were washed with phosphate-buffered saline (PBS) and overlaid by the maintenance medium with 1% FBS. The plates were incubated for 72 h at 37 °C in a CO2-incubator. The cytopathic effect (CPE) inhibition assay and real-time reverse transcription-PCR (RT-PCR) assay were used to evaluate virucidal effect of the tested compounds.
We previously described this method in detail in [22]. We performed the MTT assay to evaluate the antiviral activity of polyphenolic compounds. The viral inhibition rate (IR, %) was calculated according to Equation (1):(1) IR, %=Atv−Acv/Acd−Acv×100, where Atv is the absorbance of cells infected with HSV-1 pretreated with the studied compounds,
We calculated the selectivity index (SI) as the ratio of CC50 to IC50. Experiments were repeated three times.

[4] = test system: HSV-1; assay: Virucidal activity, RT-PCR assay (HSV-1 pretreated with compounds); format: cell-based, HSV-1 strain L2; details: for Ct: 72 h; for log10: log10 of 2^−ΔCt; for 2^−ΔCt: relative level of viral DNA vs virus control; for −ΔCt: vs virus control; for virucidal activity against HSV-1 by RT-PCR (in words): 0.1, 1 and 10 µg/mL
Method: Vero cells grown on 96-well plates were infected with the virus (100 TCID50/mL), pretreated with polyphenolic compounds at concentrations 0.1, 1 and 10 μg/mL. After 72 h of cell incubation, viral DNA was extracted from the supernatants, and the relative level of HSV-1 DNA was determined using RT-PCR. The effect of polyphenols on the relative level of viral DNA was assessed using the 2^−∆Ct method and reported as fold reduction compared to virus control.
as §1, §2
We performed the RT-PCR assay as we previously described in detail in [22]. Briefly, HSV-1 DNA was extracted after incubation from cell supernatants by using the DNA-sorb-AM (K1-12-100-CE) nucleic acid extraction kit (AmpliSens®, Moscow, Russia) according to the manufacturer′s instructions. We treated the supernatants with a lysis solution that contained guanidine chloride (chaotropic agent) in the presence of sorbent (silica particles). As the elution solution was added, the DNA was […] silica particles and separated from the sorbent particles by centrifugation.
We detected the DNA of HSV-1 in the obtained samples using the AmpliSens® HSV I, II-FRT-100F PCR kit (AmpliSens®, Moscow, Russia) on a real-time PCR instrument Rotor-Gene Q (Qiagen, Hilden, Nordrhein-Westfalen, Germany) according to the manufacturer′s instructions. The PCR reaction conditions were the following: initial denaturation at 95 °C for 15 min; then 5 cycles at 95 °C for 5 s, at 60 °C for 20 s, at 72 °C for 15 s; then 40 cycles at 95 °C for 5 s, at 60 °C for 20 s, and at 72 °C for 15 s. A negative sample was used as the amplification control for each run. The threshold cycle number Ct, was measured as the PCR cycle, where the amount of the amplified target reached the threshold value; the Ct values ≥ 37 indicated the absence of the HSV-1 DNA in the samples. We assessed the anti-HSV-1 activity of the studied compounds by the reduction in the viral DNA levels using the 2^−ΔCt method according to Equation (2):(2) ΔCt=Ctcv−Cttv where Ct is the threshold cycle number measured as the PCR cycle, where the amount of the amplified target reached the threshold value, […]

[5] = test system: 6-OHDA-treated Neuro-2a cells; assay: Apoptosis profile by flow cytometry (Annexin V & Dead Cell Kit); format: cell-based, murine; details: Table 1; polyphenols 10 µM, 6-OHDA 100 µM, 24 h; mean
Method: We investigated the effect of polyphenolic compounds from M. amurensis on apoptosis profile in 6-OHDA-treated Neuro-2a cells by flow cytometry using fluorescent annexin V conjugate as a fluorescent dye. We observed significant changes in apoptosis profile in Neuro-2a cells after 6-OHDA-treatment. […] Polyphenols 3, 6 and 13 diminished the neurotoxic effect of 6-OHDA-treatment.
The cells were incubated for 1 h in a 6-well plate (5 × 10^4 cells/mL) with polyphenolic compounds (10 µM). Then, 6-OHDA (100 µM) was added, and cell suspension was incubated for 24 h. After incubation, the maintenance media was collected, and the cells were washed by cold PBS twice and incubated with trypsin-EDTA solution. The cell suspension was washed with cold PBS twice again, centrifugated and then used for apoptosis detection by Muse® Annexin V & Dead Cell Kit in accordance with the manufacturer’s instructions (Luminex, Austin, TX, USA). The fluorescence was measured with Muse® Cell Analyzer (Luminex, Austin, TX, USA) and the data were processed by Muse 1.5 Analysis software (Luminex, Austin, TX, USA).

[6] = Human alphaherpesvirus 1, 72 h, read-out: 2^−ΔCt
[7] = Human alphaherpesvirus 1, 72 h, read-out: log10

| Compound | effect on viability of 6-OHDA-treated Neuro-2a cells (in words) ([1]; compounds at 10, 1, 0.1 µM) | Ct ([4]; 0.1 µg/mL) | −ΔCt ([4]; 0.1 µg/mL) | Ct ([4]; 1 µg/mL) | −ΔCt ([4]; 1 µg/mL) | anti-HSV-1 activity by RT-PCR (in words) ([4]; 10 µg/mL) | Ct ([4]; 10 µg/mL) | −ΔCt ([4]; 10 µg/mL) | virucidal activity against HSV-1 (in words) ([3]; CPE assay) | virucidal activity against HSV-1 by RT-PCR (in words) [4] | effect on viability of 6-OHDA-treated Neuro-2a cells (in words) ([1]; compound 1 µM) | further results |
| --- | --- | --- | --- | --- | --- | --- | --- | --- | --- | --- | --- | --- |
| medicarpin [Compound 7] | weak effect on cell viability | 18.1 ± 2.2 | 0 | 18.3 ± 2.2 | −0.20 ± 0.02 | moderate anti-HSV-1 activity | 19.8 ± 2.4 | −1.75 ± 0.20 |  |  |  | increase of mitochondrial membrane potential ([2]; compound 10 µM, 6-OHDA 120 µM, TMRM): 8–12%; SI ([3]; ratio of CC50 to IC50, virucidal scheme): 2.1 ± 0.3; log10 ([4]; 0.1 µg/mL): 0; 2^−ΔCt ([4]; 0.1 µg/mL): 1.0; log10 ([4]; 1 µg/mL): −0.060 ± 0.008; 2^−ΔCt ([4]; 1 µg/mL): 0.870 ± 0.11; log10 ([4]; 10 µg/mL): −0.50 ± 0.06; 2^−ΔCt ([4]; 10 µg/mL): 0.297 ± 0.04 |
| COc1c(O)cc2occ(-c3ccc(O)cc3)c(=O)c2c1O [Compound 5, tectorigenin] | weak effect on cell viability |  |  |  |  |  |  |  | did not show virucidal activity | did not demonstrate virucidal activity |  |  |
| O=c1c(-c2ccc(O)cc2)coc2cc(O)cc(O)c12 [Compound 2, genistein] |  | 18.1 ± 2.2 | 0 | 18.4 ± 2.4 | −0.30 ± 0.03 | moderate anti-HSV-1 activity | 22.4 ± 2.4 | −4.3 ± 0.5 |  |  |  | IC50 ([3]; Human alphaherpesvirus 1, virus pretreated with compound (virucidal), CPE assay, Vero cells, 100 TCID50/mL): 16.7 µg/mL and 61.9 µM; activity at 0.1 µg/mL [4, 6]: 100%; activity at 1 µg/mL [4, 6]: 81.2 ± 11%; activity at 10 µg/mL [4, 6]: 5.08 ± 0.61%; log reduction at 0.1 µg/mL [4, 7]: 0; log reduction at 1 µg/mL [4, 7]: 0.09 ± 0.01; log reduction at 10 µg/mL [4, 7]: 1.3 ± 0.2 |
| NCCc1cc(O)c(O)cc1O [Compound 6-OHDA, 6-hydroxydopamine, reference compound] |  |  |  |  |  |  |  |  |  |  |  | decrease of TMRM fluorescence after treatment of Neuro-2a cells with 6-OHDA ([2]; 6-OHDA alone): 14%; Dead [5]: 1.11 ± 0.37%; Early apop. [5]: 42.62% and 42.62 ± 2.3%; Late apop./Dead [5]: 12.15% and 12.15 ± 1.34%; Live [5]: 44.14 ± 1.34% |
| COc1ccc(-c2coc3cc(O)ccc3c2=O)cc1 [Compound 8, formononetin] | weak effect on cell viability |  |  |  |  |  |  |  | did not show virucidal activity | did not demonstrate virucidal activity | increased the viability |  |
| COc1ccc(C2(O)COc3cc(O)ccc3C2=O)c(O)c1 (racemic) [Compound 12, (±)-3-hydroxyvestitone] |  |  |  |  |  |  |  |  | did not show virucidal activity | did not demonstrate virucidal activity | increased the viability |  |
